The values below come from paper PMC3480206 (Future microbiology, 2012).

Test [1] concerns Mycobacterium tuberculosis XDR strains. The test can be described thus: microbe, parasite or virus in culture. The test is classed as cell-based.
The subject of test [2] is Mycobacterium tuberculosis. The test can be described thus: Alamar MIC. The settings on record: TAACF. The format is cell-based.
Another test has as its system EMB-resistant Mtb. The following applies: cited from earlier work.

Values after ≈ are worked out from the molar mass of the structure shown.

As to `CC(C)=CCC/C(C)=C/CNCCNC1C2CC3CC(C2)CC1C3` (centres unmarked) [SQ109, N-geranyl-N′-(2-adamantyl)ethane-1,2-diamine], the MIC in test [1] (Mycobacterium tuberculosis) was 0.2 µg/mL (≈ 0.605 µM); in test [1] (XDR, also EMB-resistant, strain 587W1, Microbroth) it was 0.20 µg/mL (≈ 0.605 µM); in test [2] (ATCC35822, INH-resistant, ATCC 35822, Alamar) it was 0.78 µg/mL (≈ 2.36 µM); in test [2] (ATCC35838, RIF-resistant, ATCC 35838, Alamar) it was ≤ 0.39 µg/mL; in test [2] (CIP-resistant, Alamar), ≤ 0.39 µg/mL; in test [2] (EMB-resistant, Alamar), 0.78 µg/mL (≈ 2.36 µM). This compound also gave an MIC in test [2] (KAN-resistant, Alamar) of 0.78 µg/mL (≈ 2.36 µM).
In the case of `CC[C@@H](CO)NCCN[C@@H](CC)CO` [EMB, ethambutol], the “MIC on EMB-resistant Mtb” value with EMB-resistant Mtb was 184 µg/mL (≈ 901 µM).
